Test systems include OVCAR-3 ovarian; OVCAR-4 ovarian; NCI-H522 lung; HT29 colon; MALME-3M melanoma; SR leukemia; CAKI-1 renal; SF-295 CNS; A498 renal; K-562 leukemia; OVCAR-5 ovarian.
Common to all, as to test: growth of human tumour cells (NCI), 48 h

Structures are written as SMILES.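 Briefly, cells in 96-well plates were exposed to five compound concentrations for 48 h, and endpoints were estimated by linear interpolation. The concentration for full growth arrest is given as TGI.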 Some results are limits rather than exact numbers.

Turning to `O=C(Nc1cccc(NC(=O)C(=O)C2CCC3=C(Sc4ccccc4N3)C2=O)n1)C(=O)C1CCC2=C(Sc3ccccc3N2)C1=O` (centres undefined), the TGI was over 100 µM in the assay on OVCAR-3 ovarian; 71.7 µM in the assay with OVCAR-4 ovarian; over 100 µM in the assay on NCI-H522 lung; over 100 µM in the assay with HT29 colon; over 100 µM with MALME-3M melanoma; over 100 µM with SR leukemia. Further, the TGI in the assay with CAKI-1 renal, in the assay on SF-295 CNS, in the assay with A498 renal, with K-562 leukemia and in the assay with OVCAR-5 ovarian was over 100 µM in each case.

With `NC(=O)NC(=O)CCC(NS(=O)(=O)c1ccccc1)C(=O)NC(N)=O` (centres undefined), the TGI in the assay on OVCAR-3 ovarian, with OVCAR-4 ovarian, in the assay on NCI-H522 lung, in the assay on HT29 colon, in the assay on MALME-3M melanoma and with SR leukemia was over 100 µM each time. Also, the TGI in the assay on CAKI-1 renal, with SF-295 CNS, in the assay on A498 renal, with K-562 leukemia and in the assay with OVCAR-5 ovarian was over 100 µM throughout.

On to `COC(=O)C(Cc1ccccc1)NC(=O)C(CCC(=O)OCc1ccccc1)NC(=O)OC(C)(C)C` (centres undefined), for which the TGI in the assay with OVCAR-3 ovarian, in the assay with OVCAR-4 ovarian, with NCI-H522 lung, in the assay with HT29 colon, in the assay with MALME-3M melanoma and in the assay with SR leukemia was over 100 µM in each case. The TGI in the assay on CAKI-1 renal, with SF-295 CNS, in the assay with A498 renal, in the assay with K-562 leukemia and with OVCAR-5 ovarian was over 100 µM throughout.

For the molecule `C=C1[C@H](OC(=O)C(C)C)[C@@H](OC(C)=O)[C@@H](OC(C)=O)C(C)(C)[C@@H]2O[C@H]2[C@@H](C)C(=O)[C@@]2(OC(C)=O)C[C@@](C)(OC(C)=O)[C@H](OC(C)=O)[C@@H]2[C@H]1OC(C)=O`, the TGI in the assay on OVCAR-3 ovarian, in the assay on OVCAR-4 ovarian, in the assay with NCI-H522 lung, with HT29 colon, with MALME-3M melanoma and in the assay on SR leukemia was over 100 µM in each case. Moreover, the TGI in the assay with CAKI-1 renal, with SF-295 CNS, with A498 renal, in the assay on K-562 leukemia and in the assay on OVCAR-5 ovarian was over 100 µM each time.

As to `Cc1ccccc1N=CN(C)C`, the TGI was 81.2 µM in the assay with OVCAR-3 ovarian; over 100 µM with OVCAR-4 ovarian; 94.2 µM in the assay with NCI-H522 lung; over 100 µM with HT29 colon; over 100 µM in the assay on MALME-3M melanoma; over 100 µM in the assay on SR leukemia. Moreover, the TGI was over 100 µM in the assay with CAKI-1 renal; over 100 µM with SF-295 CNS; over 100 µM in the assay on A498 renal; 44.4 µM in the assay with K-562 leukemia; over 100 µM in the assay on OVCAR-5 ovarian.

For the molecule `CC1=C(C)CC(C#N)(C#N)C(C#N)(C#N)C1`, the TGI with OVCAR-3 ovarian is 9.68 µM; with OVCAR-4 ovarian it was over 10 µM; in the assay on NCI-H522 lung, over 2.72 µM; with HT29 colon, over 10 µM; in the assay with MALME-3M melanoma, over 10 µM; with SR leukemia it was over 5.17 µM. Also, the TGI in the assay on CAKI-1 renal was over 10 µM; in the assay on SF-295 CNS, over 10 µM; in the assay with A498 renal, over 10 µM; in the assay with K-562 leukemia, 9.98 µM; in the assay with OVCAR-5 ovarian, over 10 µM.

In the case of `CN(C)C(=S)N1C(=S)N(c2ccccc2)C(=Nc2ccccc2)C1=Nc1ccccc1`, the TGI in the assay with OVCAR-4 ovarian, in the assay on NCI-H522 lung, in the assay with HT29 colon, in the assay on MALME-3M melanoma, with SR leukemia and in the assay on CAKI-1 renal was over 100 µM in each case. In addition, the TGI in the assay on SF-295 CNS, in the assay on A498 renal, in the assay on K-562 leukemia and with OVCAR-5 ovarian was over 100 µM each time.

Take `CCN(CC)C(=S)SNc1ccc(S(N)(=O)=O)cc1`: the TGI is over 100 µM in the assay on OVCAR-4 ovarian; 29.5 µM with NCI-H522 lung; over 54.6 µM in the assay with HT29 colon; 97.3 µM in the assay on MALME-3M melanoma; over 85.6 µM with SR leukemia; over 90.6 µM in the assay on CAKI-1 renal. Also, the TGI was over 100 µM in the assay on SF-295 CNS, over 100 µM in the assay on A498 renal, over 100 µM in the assay with K-562 leukemia and over 72.3 µM in the assay on OVCAR-5 ovarian.

For `O=C(/C=C/c1ccc(O)c(O)c1)OCc1ccccc1`, the TGI is over 100 µM with OVCAR-3 ovarian; 79.2 µM in the assay on OVCAR-4 ovarian; 7.77 µM in the assay on NCI-H522 lung; over 100 µM in the assay with HT29 colon; 80.4 µM in the assay with MALME-3M melanoma; 19.7 µM with SR leukemia. The TGI in the assay on CAKI-1 renal was 67.3 µM; with SF-295 CNS, 57.4 µM; in the assay on A498 renal, 50.5 µM; with K-562 leukemia, 61 µM; in the assay on OVCAR-5 ovarian, over 100 µM.

For `C1=Nc2ccc(cc2)N=Cc2ccccc2OCc2cccc(n2)COc2ccccc21`, the TGI with OVCAR-3 ovarian, in the assay with OVCAR-4 ovarian, in the assay with NCI-H522 lung, with HT29 colon, with MALME-3M melanoma and with SR leukemia was over 100 µM each time. The TGI in the assay on CAKI-1 renal, in the assay on SF-295 CNS, in the assay with A498 renal, in the assay with K-562 leukemia and in the assay with OVCAR-5 ovarian was over 100 µM throughout.

Consider `CCCc1cc(=O)oc2c(C=O)c(O)cc(O)c12`, for which the TGI in the assay on OVCAR-3 ovarian came out at 44.3 µM; with OVCAR-4 ovarian, 73.5 µM; in the assay on NCI-H522 lung, 41.9 µM; in the assay on HT29 colon, 64.5 µM; with MALME-3M melanoma, 42.1 µM; with SR leukemia, 58.1 µM. Besides, the TGI in the assay with CAKI-1 renal was 75.8 µM; in the assay with SF-295 CNS it was 85 µM; in the assay on A498 renal it was 40.6 µM; in the assay on K-562 leukemia, over 100 µM; with OVCAR-5 ovarian it was 74.4 µM.

Turning to `O=c1c(-c2c(-c3ccccc3)oc3ccc(Cl)cc3c2=O)c(-c2ccccc2)oc2ccc(Cl)cc12`, the TGI in the assay with OVCAR-3 ovarian, with OVCAR-4 ovarian, in the assay with NCI-H522 lung, in the assay with HT29 colon, with MALME-3M melanoma and in the assay with SR leukemia was over 100 µM throughout. Also, the TGI in the assay with CAKI-1 renal was over 100 µM; with SF-295 CNS, over 79.4 µM; with A498 renal it was over 100 µM; in the assay on K-562 leukemia, over 100 µM; with OVCAR-5 ovarian, over 100 µM.

In the case of `Nc1ccc(Oc2ccc(C3(c4ccc(Oc5ccc(N)cc5)cc4)C4CC5C6CC7CC5C3C(C7)C6C4)cc2)cc1`, the TGI in the assay on OVCAR-3 ovarian, in the assay with OVCAR-4 ovarian, with NCI-H522 lung, in the assay with HT29 colon, in the assay with MALME-3M melanoma and in the assay on SR leukemia was over 100 µM each time. Moreover, the TGI in the assay with CAKI-1 renal was over 100 µM; in the assay with SF-295 CNS, over 100 µM; with A498 renal, 18.9 µM; in the assay on K-562 leukemia, over 100 µM; in the assay on OVCAR-5 ovarian it was over 100 µM.

Regarding `N=c1oc2c(Br)cc(Br)cc2cc1C(=O)Nc1ccccn1`, the TGI in the assay with OVCAR-3 ovarian, with OVCAR-4 ovarian, in the assay on NCI-H522 lung, in the assay on HT29 colon, with MALME-3M melanoma and in the assay on SR leukemia was over 100 µM in each case. Moreover, the TGI in the assay with CAKI-1 renal, in the assay with A498 renal, with K-562 leukemia and in the assay with OVCAR-5 ovarian was over 100 µM in each case.

For `CC(=O)OCC1OC(n2c(C#N)cc(=O)[nH]c2=O)CC1OC(C)=O` (centres undefined), the TGI with OVCAR-3 ovarian, in the assay on OVCAR-4 ovarian, with NCI-H522 lung, with HT29 colon, in the assay on MALME-3M melanoma and with SR leukemia was over 100 µM throughout. Besides, the TGI with CAKI-1 renal, in the assay on SF-295 CNS, in the assay on A498 renal, with K-562 leukemia and in the assay on OVCAR-5 ovarian was over 100 µM each time.

As to `C/C(=C/c1ccccc1)CN(C(=O)/C=C\Sc1ccccc1)C(C)(C)C`, the TGI was over 100 µM in the assay on OVCAR-3 ovarian; over 100 µM in the assay on OVCAR-4 ovarian; over 46.4 µM in the assay with NCI-H522 lung; over 100 µM in the assay on HT29 colon; over 100 µM in the assay with MALME-3M melanoma; over 100 µM with SR leukemia. The TGI in the assay on CAKI-1 renal, with SF-295 CNS, in the assay on A498 renal, in the assay with K-562 leukemia and with OVCAR-5 ovarian was over 100 µM throughout.

With `CCN1C(=S)n2cccc2C1CC(=O)c1ccc(Cl)cc1` (centres undefined), the TGI in the assay with OVCAR-3 ovarian, in the assay with OVCAR-4 ovarian, in the assay on NCI-H522 lung, in the assay on HT29 colon, in the assay on MALME-3M melanoma and with SR leukemia was over 100 µM throughout. The TGI in the assay with CAKI-1 renal, with SF-295 CNS, in the assay with A498 renal, in the assay with K-562 leukemia and in the assay on OVCAR-5 ovarian was over 100 µM in each case.

In the case of `CC(C)(C)OC(=O)[C@@H]1CCC(=S)N1Cc1ccccc1`, the TGI in the assay with OVCAR-3 ovarian, with OVCAR-4 ovarian, with NCI-H522 lung, in the assay on MALME-3M melanoma, in the assay with SR leukemia and in the assay with CAKI-1 renal was over 100 µM each time. Further, the TGI in the assay on SF-295 CNS, with A498 renal, with K-562 leukemia and with OVCAR-5 ovarian was over 100 µM in each case.
